Consider 23 compounds from PubChem BioAssay AID256 (DTP/NCI, 2004).

The test concerns CD2F1 mice, L1210 leukemia ip, survival T/C. As to the kind of experiment: NCI In Vivo Anticancer Drug Screen. Data for tumor model L1210 Leukemia (intraperitoneal) in CD2F1 (CDF1) mice. The settings on record: higher = longer survival. In outline:
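Activity against a transplanted murine tumor was judged by comparing the compound group with a vehicle group. The outcome in the treated animals was divided by that in the controls.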

[1] abbreviates: endpoint: mean survival time, dose: 100.0 mg/kg/injection, schedule: Q04DX002 (ip), vehicle: saline with Tween-80.
The mark [2] stands for this setting: endpoint: mean survival time, dose: 200.0 mg/kg/injection, schedule: Q04DX002 (ip), vehicle: saline with Tween-80.
[3] abbreviates: endpoint: mean survival time, dose: 400.0 mg/kg/injection, schedule: Q04DX002 (ip), vehicle: saline with Tween-80.
The mark [4] stands for this setting: endpoint: mean survival time, dose: 100.0 mg/kg/injection, schedule: Q01DX001 (ip), vehicle: saline with Tween-80.
[5] abbreviates: endpoint: mean survival time, dose: 25.0 mg/kg/injection, schedule: Q01DX009 (ip), vehicle: saline.
[6] abbreviates: endpoint: mean survival time, dose: 50.0 mg/kg/injection, schedule: Q01DX009 (ip), vehicle: saline.
[7] abbreviates: endpoint: mean survival time, dose: 100.0 mg/kg/injection, schedule: Q01DX009 (ip), vehicle: saline.
Where [8] appears, read: endpoint: mean survival time, dose: 200.0 mg/kg/injection, schedule: Q01DX009 (ip), vehicle: saline.
Where [9] appears, read: endpoint: mean survival time, dose: 400.0 mg/kg/injection, schedule: Q01DX009 (ip), vehicle: saline.
[10] abbreviates: endpoint: mean survival time, dose: 200.0 mg/kg/injection, schedule: Q01DX001 (ip), vehicle: saline with Tween-80.
The mark [11] stands for this setting: endpoint: mean survival time, dose: 100.0 mg/kg/injection, schedule: Q04DX003 (ip), vehicle: Klucel (hydroxypropylcellulose) (HPC).
Setting [12] is: endpoint: mean survival time, dose: 200.0 mg/kg/injection, schedule: Q04DX003 (ip), vehicle: Klucel (hydroxypropylcellulose) (HPC).
[13] abbreviates: endpoint: mean survival time, dose: 400.0 mg/kg/injection, schedule: Q04DX003 (ip), vehicle: Klucel (hydroxypropylcellulose) (HPC).

“And” between values parts separate entries of the source, which are not always exact repeats. Identical values can stand only once. Toxic doses and inconclusive results are not listed.

Regarding `NC(=S)N/N=C/c1cc(-c2cccc(N)c2)ccn1`, the T/C (endpoint: mean survival time, dose: 6.25 mg/kg/injection, schedule: Q01DX009 (ip), vehicle: saline with Tween-80) was 113 % of control; the T/C (endpoint: mean survival time, dose: 9.4 mg/kg/injection, schedule: Q01DX009 (ip), vehicle: saline with Tween-80) is 116 % of control and 104 % of control; the T/C (endpoint: mean survival time, dose: 12.5 mg/kg/injection, schedule: Q01DX009 (ip), vehicle: saline with Tween-80) is 115 % of control; the T/C (endpoint: mean survival time, dose: 18.8 mg/kg/injection, schedule: Q01DX009 (ip), vehicle: saline with Tween-80) was 115 % of control and 118 % of control; the T/C (endpoint: mean survival time, dose: 25.0 mg/kg/injection, schedule: Q01DX009 (ip), vehicle: saline with Tween-80) was 123 % of control; the T/C (endpoint: mean survival time, dose: 37.5 mg/kg/injection, schedule: Q01DX009 (ip), vehicle: saline with Tween-80) was 115 % of control and 119 % of control. The T/C (endpoint: mean survival time, dose: 75.0 mg/kg/injection, schedule: Q01DX009 (ip), vehicle: saline with Tween-80) was 89 % of control and 104 % of control and 107 % of control.

As to `CCCCCCCCCCCCCCCC(=O)Nc1ccc2c(c1)[nH]c(=O)c1cc(NC(=O)CCCCCCCCCCCCCCC)ccc12`, the T/C under setting [1] was 98 % of control, the T/C under setting [2] is 111 % of control and the T/C under setting [3] was 102 % of control.

Take `CC(=O)c1ccc(C(=O)CC(O)(C(F)(F)F)C(F)(F)F)cc1`: the T/C is 98 % of control (endpoint: mean survival time, dose: 50.0 mg/kg/injection, schedule: Q01DX009 (ip), vehicle: other); 104 % of control (endpoint: mean survival time, dose: 100.0 mg/kg/injection, schedule: Q01DX009 (ip), vehicle: other); 95 % of control (endpoint: mean survival time, dose: 100.0 mg/kg/injection, schedule: Q04DX003 (ip), vehicle: other); 106 % of control (endpoint: mean survival time, dose: 200.0 mg/kg/injection, schedule: Q01DX009 (ip), vehicle: other); 97 % of control (endpoint: mean survival time, dose: 200.0 mg/kg/injection, schedule: Q04DX003 (ip), vehicle: other).

With `O=C(Nc1cccc2ccccc12)OC1CCCCC1Br` (stereo unspecified), the T/C (endpoint: mean survival time, dose: 6.25 mg/kg/injection, schedule: Q01DX001 (ip), vehicle: saline with Tween-80) is 100 % of control; the T/C (endpoint: mean survival time, dose: 12.5 mg/kg/injection, schedule: Q01DX001 (ip), vehicle: saline with Tween-80) was 92 % of control; the T/C (endpoint: mean survival time, dose: 25.0 mg/kg/injection, schedule: Q01DX001 (ip), vehicle: saline with Tween-80) is 100 % of control; the T/C (endpoint: mean survival time, dose: 50.0 mg/kg/injection, schedule: Q01DX001 (ip), vehicle: saline with Tween-80) is 93 % of control; the T/C under setting [4] was 89 % of control.

Regarding `c1ccc([B-]2([C+]3CCCCC3)N3CCCCC3C3CCCCN32)cc1` (stereo unspecified), the T/C is 90 % of control (endpoint: mean survival time, dose: 3.12 mg/kg/injection, schedule: Q01DX009 (ip), vehicle: saline); 95 % of control (endpoint: mean survival time, dose: 6.25 mg/kg/injection, schedule: Q01DX009 (ip), vehicle: saline); 101 % of control (endpoint: mean survival time, dose: 12.5 mg/kg/injection, schedule: Q01DX009 (ip), vehicle: saline); 102 % of control under setting [5]; 86 % of control under setting [6].

In the case of `Cc1c(O)c2c(c(O)c1Cc1cccc(CN)c1)C(=O)c1ccccc1C2=O`, the T/C reads like this: (endpoint: mean survival time, dose: 1.56 mg/kg/injection, schedule: Q01DX009 (ip), vehicle: other) 101 % of control; (endpoint: mean survival time, dose: 3.13 mg/kg/injection, schedule: Q01DX009 (ip), vehicle: other) 93 % of control; (endpoint: mean survival time, dose: 6.25 mg/kg/injection, schedule: Q01DX009 (ip), vehicle: other) 87 % of control; (endpoint: mean survival time, dose: 12.5 mg/kg/injection, schedule: Q01DX009 (ip), vehicle: other) 90 % of control; (endpoint: mean survival time, dose: 25.0 mg/kg/injection, schedule: Q01DX009 (ip), vehicle: other) 94 % of control.

With `O=CNCCN(C=O)CCO`, the T/C runs as follows: under setting [7], 97 % of control; under setting [8], 104 % of control; under setting [9], 98 % of control.

Consider `O=C(O)C1C2CCCCC2=C2CCCCC2C1C(=O)O` (stereo unspecified), for which the T/C runs as follows: (endpoint: mean survival time, dose: 100.0 mg/kg/injection, schedule: Q01DX009 (ip), vehicle: saline with Tween-80) 98 % of control; (endpoint: mean survival time, dose: 200.0 mg/kg/injection, schedule: Q01DX009 (ip), vehicle: saline with Tween-80) 104 % of control.

For the compound `CCCOP(=O)(CCl)OCCC`, the T/C is, setting by setting: under setting [7], 95 % of control; under setting [8], 100 % of control; under setting [9], 97 % of control.

`N/C(=N\O)c1cn(C2OC(CO)C(O)C2O)c2ncncc12` (stereo unspecified): the T/C is 159 % of control under setting [5], 168 % of control under setting [6] and 102 % of control under setting [7].

Regarding `OCCOc1ccc(Cl)cc1Cl`, the T/C runs as follows: (endpoint: mean survival time, dose: 75.0 mg/kg/injection, schedule: Q04DX003 (ip), vehicle: saline with Tween-80) 98 % of control; (endpoint: mean survival time, dose: 150.0 mg/kg/injection, schedule: Q04DX003 (ip), vehicle: saline with Tween-80) 97 % of control; (endpoint: mean survival time, dose: 300.0 mg/kg/injection, schedule: Q04DX003 (ip), vehicle: saline with Tween-80) 98 % of control.

Turning to `SCc1c(Cl)c(Cl)c(Cl)c(Cl)c1Cl`, the T/C reads like this: under setting [1], 94 % of control; under setting [2], 87 % of control; under setting [3], 97 % of control.

For `CC(C)c1cc(C(C)(C)C)c(O)c(C(C)(C)C)c1`, the T/C runs as follows: (endpoint: mean survival time, dose: 25.0 mg/kg/injection, schedule: Q01DX009 (ip), vehicle: Klucel (hydroxypropylcellulose) (HPC)) 94 % of control; (endpoint: mean survival time, dose: 50.0 mg/kg/injection, schedule: Q01DX009 (ip), vehicle: Klucel (hydroxypropylcellulose) (HPC)) 102 % of control; (endpoint: mean survival time, dose: 100.0 mg/kg/injection, schedule: Q01DX009 (ip), vehicle: Klucel (hydroxypropylcellulose) (HPC)) 98 % of control.

As to `O=C1c2ccccc2C(=O)c2c1cccc2S(=O)(=O)O`, the T/C under setting [10] was 97 % of control.

Turning to `C(=N/c1ccccn1)/c1ccc(/C=N\c2ccccn2)cc1`, the T/C is, setting by setting: under setting [11], 94 % of control; under setting [12], 94 % of control; under setting [13], 102 % of control.

`O=c1cc(NCCCCc2ccccc2)[nH]c(=O)[nH]1`: the T/C is, setting by setting: under setting [4], 94 % of control; under setting [10], 91 % of control; (endpoint: mean survival time, dose: 400.0 mg/kg/injection, schedule: Q01DX001 (ip), vehicle: saline with Tween-80) 91 % of control.

As for `CCCCCCCCCCCCCCCC(=O)N(CCCN(CC)CC)C(C)CCCN(CC)CC` (stereo unspecified), the T/C (endpoint: mean survival time, dose: 1.56 mg/kg/injection, schedule: Q01DX009 (ip), vehicle: water) is 102 % of control; the T/C (endpoint: mean survival time, dose: 3.13 mg/kg/injection, schedule: Q01DX009 (ip), vehicle: water) was 100 % of control; the T/C (endpoint: mean survival time, dose: 6.25 mg/kg/injection, schedule: Q01DX009 (ip), vehicle: water) is 96 % of control.

On to `O=C1CC(=O)NC(=S)N1`, for which the T/C under setting [7] is 95 % of control and the T/C under setting [8] was 93 % of control.

Consider `CC1NC(=O)OC1(C)C(C)(C)C` (stereo unspecified), for which the T/C by setting is: (endpoint: mean survival time, dose: 5.0 mg/kg/injection, schedule: Q01DX009 (ip), vehicle: saline with Tween-80) 94 % of control; (endpoint: mean survival time, dose: 10.0 mg/kg/injection, schedule: Q01DX009 (ip), vehicle: saline with Tween-80) 104 % of control; (endpoint: mean survival time, dose: 20.0 mg/kg/injection, schedule: Q01DX009 (ip), vehicle: saline with Tween-80) 102 % of control.

As to `COc1ccc(-c2c3nc(c(-c4ccc(OC)cc4)c4ccc([nH]4)c(-c4ccc(OC)cc4)c4nc(c(-c5ccc(OC)cc5)c5ccc2[nH]5)C=C4)C=C3)cc1`, the T/C was 93 % of control under setting [11], 101 % of control under setting [12] and 89 % of control under setting [13].

Turning to `COc1cccc(C(=O)NC[n+]2ccccc2)c1`, for the setting “endpoint: mean survival time, dose: 100.0 mg/kg/injection, schedule: Q04DX003 (ip), vehicle: saline”, the T/C was 110 % of control.

On to `O=[N+]([O-])c1ccc(N2CCOCC2)c2c1no[n+]2[O-]`, for which the T/C is, setting by setting: (endpoint: median survival time, dose: 12.5 mg/kg/injection, schedule: Q01DX009 (ip), vehicle: saline with Tween-80) 117 % of control; (endpoint: median survival time, dose: 25.0 mg/kg/injection, schedule: Q01DX009 (ip), vehicle: saline with Tween-80) 112 % of control; (endpoint: median survival time, dose: 50.0 mg/kg/injection, schedule: Q01DX009 (ip), vehicle: saline with Tween-80) 108 % of control; (endpoint: median survival time, dose: 100.0 mg/kg/injection, schedule: Q01DX009 (ip), vehicle: saline with Tween-80) 91 % of control.

Take `Nc1ccc2nsnc2c1`: the T/C (endpoint: mean survival time, dose: 50.0 mg/kg/injection, schedule: Q01DX001 (ip), vehicle: Klucel (hydroxypropylcellulose) (HPC)) is 105 % of control; the T/C (endpoint: mean survival time, dose: 100.0 mg/kg/injection, schedule: Q01DX001 (ip), vehicle: Klucel (hydroxypropylcellulose) (HPC)) was 90 % of control; the T/C (endpoint: mean survival time, dose: 200.0 mg/kg/injection, schedule: Q01DX001 (ip), vehicle: Klucel (hydroxypropylcellulose) (HPC)) was 103 % of control.
